Laboratory results as given in US9321756B2, “Azole compounds as PIM inhibitors” (priority 2011, dated 2016).
Like-named read-outs stand apart in the source and are kept apart here.

Assays:
[1] = molecular target: full length recombinant Pim-2 (Homo sapiens (Human), UniProt Q9P1W9); assay: Pim enzyme assay (HTRF, phosphorylation of biotinylated-BAD (S112) peptide), Pim-2; type: biochemical; details: read-out: Pim2_IC50
[2] = molecular target: full length recombinant Pim-1 (Homo sapiens (Human), UniProt P11309); assay: Pim enzyme assay (HTRF, phosphorylation of biotinylated-BAD (S112) peptide), Pim-1; type: biochemical
Chain of full length recombinant Pim-1 (P11309 whole entry): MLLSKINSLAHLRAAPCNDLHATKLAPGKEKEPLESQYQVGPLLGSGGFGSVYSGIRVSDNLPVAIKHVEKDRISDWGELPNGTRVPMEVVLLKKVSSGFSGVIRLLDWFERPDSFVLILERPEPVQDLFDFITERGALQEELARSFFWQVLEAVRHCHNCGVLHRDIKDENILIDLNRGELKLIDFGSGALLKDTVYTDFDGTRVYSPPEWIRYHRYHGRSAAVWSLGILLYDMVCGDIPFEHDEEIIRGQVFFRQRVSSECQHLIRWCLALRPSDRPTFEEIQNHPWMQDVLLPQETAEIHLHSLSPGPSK

[3] = HTRF, 10-point curve, high dose 1 uM, 45 min at RT
[4] = HTRF, 10-point curve, high dose 1 uM, 2 h at RT, read-out: Pim_1_IC50
[5] = Pim-1 enzyme assay, read-out: Pim_1_IC50

Chain of full length recombinant Pim-2 (Q9P1W9 whole entry): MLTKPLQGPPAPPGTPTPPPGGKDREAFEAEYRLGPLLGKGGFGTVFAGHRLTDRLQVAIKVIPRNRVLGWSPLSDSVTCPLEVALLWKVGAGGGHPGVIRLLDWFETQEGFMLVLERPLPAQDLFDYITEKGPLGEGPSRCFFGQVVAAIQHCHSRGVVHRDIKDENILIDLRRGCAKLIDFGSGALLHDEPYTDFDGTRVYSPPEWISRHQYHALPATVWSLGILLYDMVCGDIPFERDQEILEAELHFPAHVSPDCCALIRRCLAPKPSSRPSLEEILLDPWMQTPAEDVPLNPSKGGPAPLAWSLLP

Row | SMILES | IC50 [2, 5] [nM] | IC50 ([1]; Pim-2 enzyme assay) [nM] | other results
1 | CC(C)(C)Nc1nnc(-c2ccc3[nH]cc(-c4ncc(C(N)=O)s4)c3c2)o1 [Example 277, 2-(5-(5-(tert-butylamino)-1,3,4-oxadiazol-2-yl)-1H-indol-3-yl)-1,3-thiazole-5-carboxamide] |  |  | IC50 [1, 3]: 393 nM; IC50 [2, 4]: 58.2 nM
2 | CC(C)Nc1nnc(-c2ccc3[nH]cc(-c4nccc(OC5CCCN(C)C5)n4)c3c2)o1 (stereo not shown) [Example 62, N-isopropyl-5-(3-(4-((1-methylpiperidin-3-yl)oxy)pyrimidin-2-yl)-1H-indol-5-yl)-1,3,4-oxadiazol-2-amine 2,2,2-trifluoroacetate] | 69.5 |  | IC50 [1]: 207 nM
3 | CC(C)Oc1cncc(-c2c[nH]c3ccc(-c4noc(N)n4)cc23)n1 [Example 71, 3-(3-(6-isopropoxypyrazin-2-yl)-1H-indol-5-yl)-1,2,4-oxadiazol-5-amine] | 69.5 | 538 | 
4 | CC(C)Nc1nnc(-c2ccc3[nH]cc(-c4cc(C(=O)N(C)C)ccc4F)c3c2)o1 [Example 302, 4-fluoro-N,N-dimethyl-3-(5-(5-((1-methylethyl)amino)-1,3,4-oxadiazol-2-yl)-1H-indol-3-yl)benzamide] |  |  | IC50 [2, 4]: 291 nM
5 | CC(C)Nc1cncc(-c2c[nH]c3ccc(-c4nsc(N)n4)cc23)n1 [Example 66, 3-(3-(6-(isopropylamino)pyrazin-2-yl)-1H-indol-5-yl)-1,2,4-thiadiazol-5-amine] | 20.1 | 649 | 
6 | CC(C)Nc1nnc(-c2ccc3[nH]cc(-c4cncc(C(=O)N(C)C)c4)c3c2)o1 [Example 296, N,N-dimethyl-5-(5-(5-((1-methylethyl)amino)-1,3,4-oxadiazol-2-yl)-1H-indol-3-yl)-3-pyridinecarboxamide] |  |  | IC50 [1, 3]: > 1000 nM; IC50 [2, 4]: > 1000 nM
7 | CC(C)Nc1nnc(-c2ccc3[nH]cc(NC(=O)c4ccncc4)c3c2)o1 [Example 304, N-(5-(5-((1-methylethyl)amino)-1,3,4-oxadiazol-2-yl)-1H-indol-3-yl)-4-pyridinecarboxamide] |  |  | IC50 [1, 3]: 115 nM; IC50 [2, 4]: 70 nM
8 | CCN(C)c1cnc(-c2c[nH]c3ccc(-c4nnc(N)s4)cc23)cn1 [Example 188, 5-(5-(5-amino-1,3,4-thiadiazol-2-yl)-1H-indol-3-yl)-N-ethyl-N-methyl-2-pyrazinamine] | 398 | 1220 | 
9 | CC(C)Nc1cncc(-c2c[nH]c3ccc(-c4nc(N)no4)cc23)n1 [Example 67, 5-(3-(6-(isopropylamino)pyrazin-2-yl)-1H-indol-5-yl)-1,2,4-oxadiazol-3-amine] | 5.79 |  | IC50 [1]: 58.9 nM
10 | CC(C)(C)Nc1nnc(-c2ccc3[nH]cc(-c4nccc(C5CC5)n4)c3c2)o1 [Example 54, N-tert-butyl-5-(3-(4-cyclopropylpyrimidin-2-yl)-1H-indol-5-yl)-1,3,4-oxadiazol-2-amine 2,2,2-trifluoroacetate] | 1.58 |  | IC50 [1]: 2.4 nM
11 | CC(C)Cn1cc(-c2c[nH]c3ccc(-c4nnc(N)o4)nc23)cn1 [Example 127, 5-(3-(1-(2-methylpropyl)-1H-pyrazol-4-yl)-1H-pyrrolo[3,2-b]pyridin-5-yl)-1,3,4-oxadiazol-2-amine] | 389 |  | 
12 | CC(C)Cc1nnc(-c2ccc3[nH]cc(-c4nccc(C5CC5)n4)c3c2)o1 [Example 51, 2-(3-(4-cyclopropylpyrimidin-2-yl)-1H-indol-5-yl)-5-isobutyl-1,3,4-oxadiazole] | 92.5 | 30.8 | 
13 | CC(C)Nc1nc(-c2ccc3[nH]cc(-c4cncc(OC(C)C)n4)c3c2)no1 [Example 73, 3-(3-(6-isopropoxypyrazin-2-yl)-1H-indol-5-yl)-N-isopropyl-1,2,4-oxadiazol-5-amine] | 45.9 |  | IC50 [1]: 504 nM
14 | CC(C)Nc1nnc(-c2ccc3[nH]cc(-c4nc(C(N)=O)cc(C5CC5)n4)c3c2)o1 [Example 48, 6-cyclopropyl-2-(5-(5-(isopropylamino)-1,3,4-oxadiazol-2-yl)-1H-indol-3-yl)pyrimidine-4-carboxamide] | 2.53 |  | 
15 | CC(C)(C)Nc1nnc(-c2ccc3[nH]cc(-c4ncc(F)c(C5CC5)n4)c3c2)o1 [Example 56, N-tert-butyl-5-(3-(4-cyclopropyl-5-fluoropyrimidin-2-yl)-1H-indol-5-yl)-1,3,4-oxadiazol-2-amine] | 2.53 |  | 
16 | CC(C)Nc1nnc(-c2ccc3[nH]cc(-c4cccc(C(=O)NC5CC5)n4)c3c2)o1 [Example 294, N-cyclopropyl-6-(5-(5-((1-methylethyl)amino)-1,3,4-oxadiazol-2-yl)-1H-indol-3-yl)-2-pyridinecarboxamide] |  |  | IC50 [2, 4]: 664 nM
17 | CNC(=O)c1ccc(-c2c[nH]c3ccc(-c4nnc(NC(C)C)o4)cc23)nc1 [Example 295, N-methyl-6-(5-(5-((1-methylethyl)amino)-1,3,4-oxadiazol-2-yl)-1H-indol-3-yl)-3-pyridinecarboxamide] |  |  | IC50 [2, 4]: 578 nM
18 | CC(C)Oc1cccc(-c2c[nH]c3ccc(-c4nsc(N)n4)cc23)n1 [Example 65, 3-(3-(6-isopropoxypyridin-2-yl)-1H-indol-5-yl)-1,2,4-thiadiazol-5-amine] | 335 |  | 
19 | CC(C)Nc1nnc(-c2ccc3[nH]cc(-c4ccc(C(N)=O)cn4)c3c2)o1 [Example 303, 6-(5-(5-((1-methylethyl)amino)-1,3,4-oxadiazol-2-yl)-1H-indol-3-yl)-3-pyridinecarboxamide] |  |  | IC50 [2, 4]: 268 nM

Second part, led by results:

Row | IC50 [2, 5] [nM] | IC50 ([1]; Pim-2 enzyme assay) [nM] | SMILES | other results
20 | 364 | 450 | Fc1cccc(Nc2nnc(-c3ccc4[nH]cc(-c5nccc(C6CC6)n5)c4c3)o2)c1 [Example 269, 5-(3-(4-cyclopropyl-2-pyrimidinyl)-1H-indol-5-yl)-N-(3-fluorophenyl)-1,3,4-oxadiazol-2-amine] | 
21 | 644 | 717 | Nc1nnc(-c2ccc3[nH]cc(-c4ccccc4F)c3n2)o1 [Example 9, 5-(3-(2-fluorophenyl)-1H-pyrrolo[3,2-b]pyridin-5-yl)-1,3,4-oxadiazol-2-amine] | 
22 |  | 51 | CC(C)Cc1nnc(-c2ccc3[nH]cc(-c4cncc(C5CC5)n4)c3c2)o1 [Example 265, 3-(6-cyclopropyl-2-pyrazinyl)-5-(5-(2-methylpropyl)-1,3,4-oxadiazol-2-yl)-1H-indole] | IC50 [2]: 28.6 nM
23 | 8.77 | 34.8 | Cc1ccnc(-c2c[nH]c3ccc(-c4nnc(NC(C)(C)C)o4)cc23)n1 [Example 270, N-tert-butyl-5-(3-(4-methyl-2-pyrimidinyl)-1H-indol-5-yl)-1,3,4-oxadiazol-2-amine] | 
24 | 159 | 106 | COc1nc(-c2c[nH]c3ccc(-c4nnc(NC(C)C)o4)cc23)nc(C)c1F [Example 260, 5-(3-(5-fluoro-4-methoxy-6-methyl-2-pyrimidinyl)-1H-indol-5-yl)-N-(1-methylethyl)-1,3,4-oxadiazol-2-amine] | 
25 | 105 | 351 | Cc1cc(N)nc(-c2c[nH]c3ccc(-c4nnc(NC(C)(C)C)o4)cc23)n1 [Example 272, 2-(5-(5-(tert-butylamino)-1,3-4-oxadiazol-2-yl)-1H-indol-3-yl)-6-methyl-4-pyrimidinamine] | 
26 | 69.5 |  | CNc1nc(-c2ccc3[nH]cc(-c4cncc(OC(C)C)n4)c3c2)no1 [Example 72, 3-(3-(6-isopropoxypyrazin-2-yl)-1H-indol-5-yl)-N-methyl-1,2,4-oxadiazol-5-amine] | 
